We go through twelve molecules from article PMC4734766, “Pentamidine Is Not a Permeant but a Nanomolar Inhibitor of the Trypanosoma brucei Aquaglyceroporin-2” (PLoS Pathogens, 2016).

For data set [1] the following is noted: cited from earlier work.
The target in data set [2] is T1, TbAQP2 (Trypanosoma brucei brucei, UniProt Q6ZXT3).
T1 sequence (Q6ZXT3 1-312): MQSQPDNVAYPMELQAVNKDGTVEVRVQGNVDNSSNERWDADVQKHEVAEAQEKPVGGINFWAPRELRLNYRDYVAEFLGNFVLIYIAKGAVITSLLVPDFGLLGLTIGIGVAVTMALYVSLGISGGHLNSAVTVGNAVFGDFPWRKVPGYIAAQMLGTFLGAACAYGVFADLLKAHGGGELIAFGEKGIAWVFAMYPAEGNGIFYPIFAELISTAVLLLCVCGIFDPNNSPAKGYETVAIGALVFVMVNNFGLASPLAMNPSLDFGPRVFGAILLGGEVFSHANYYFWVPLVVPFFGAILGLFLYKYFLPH
Conditions: not told, pH 7.2.

In data set [3] the target is T1, TbAQP2.
Data set [4] addresses T1, TbAQP2. The data set can be described thus: cell-based.
Data set [5] concerns the target T1, TbAQP2. Conditions: pH 5.5.
The target in data set [6] is T2, TbAQP3 (Trypanosoma brucei brucei, UniProt Q6ZXT2).
The test system of data set [7] is other AQPs. Conditions: covalent cysteine-modification; cited from earlier work.
Data set [8] has as its target T2, TbAQP3. Conditions: up to 500 μM pentamidine added 10 min prior to the assay.
Data set [9] deals with yeast. As to the kind of experiment: Phenotypic yeast growth assay, pentamidine susceptibility on YPG (glycerol) media. The format is cell-based, Saccharomyces cerevisiae. Conditions: pentamidine isethionate 1 or 10 μg ml–1, compared with non-expressing and TbAQP3 expressing cells.
The test system of data set [10] is yeast. Conditions: cited from earlier work.
The subject of data set [11] is T. brucei expressing mutant TbAQP2 (GFPAQP2 L264R). The data set can be described thus: alamarBlue EC50 assay, aqp2-null strain expressing GFP-TbAQP2 Leu264Arg. Conditions: Trypanosoma brucei.
Protocol: Bloodstream-form T. brucei, Lister 427, MiTat 1.2, clone 221a and derivatives were maintained as previously described [2]; 2T1 [1] and aqp2 null strains [2] were also described previously. Strains were transfected using a Nucleofector apparatus (Lonza) in conjunction with cytomix and transformants were selected with hygromycin (2.5 μg ml^–1). ^GFPAQP expression was induced by exposing cells to 1 μg ml^–1 tetracycline for 48 h. EC50 assays were carried out using alamarBlue as described [44, 45].
The format of data set [12] is physicochemical. Conditions: prohibits a sufficiently concentrated gradient in the light-scattering assay. The source says:
Next, we employed a biophysical light-scattering assay for TbAQP2 permeability. We expressed TbAQP2 in a yeast strain that lacks the endogenous aquaglyceroporin (Δfps1), prepared protoplasts, and challenged them by a hypertonic, test solute-containing buffer. In an initial rapid phase, the protoplasts will release water following the outward osmotic gradient and shrink as indicated by an increase in light scattering. In the second slower phase, volume will be regained if the test solute can pass TbAQP2 and enter the protoplasts. […] We used instead two pairs of test solutes, glycerol/3-aminopropane-1,2-diol and urea/formamidine, of which glycerol and urea are established permeants of TbAQP2 [11], whereas the respective partners are bioisosteric nitrogen-derivatives, which are positively charged at neutral pH (Fig 1F). […] Formamidine is too strong a base (pKa 13) to be amenable to deprotonation in aqueous solution. […] The lack of permeability for the charged compounds is not due to molecule size, because formamidine is even smaller than urea. […] We conclude that organic cations fail to traverse the TbAQP2 channel.

Where [13] appears, read: IC50, inhibition of TbAQP2 glycerol permeability.

Where two headings read alike, the source gives them in different places.

T2 sequence (Q6ZXT2 whole entry): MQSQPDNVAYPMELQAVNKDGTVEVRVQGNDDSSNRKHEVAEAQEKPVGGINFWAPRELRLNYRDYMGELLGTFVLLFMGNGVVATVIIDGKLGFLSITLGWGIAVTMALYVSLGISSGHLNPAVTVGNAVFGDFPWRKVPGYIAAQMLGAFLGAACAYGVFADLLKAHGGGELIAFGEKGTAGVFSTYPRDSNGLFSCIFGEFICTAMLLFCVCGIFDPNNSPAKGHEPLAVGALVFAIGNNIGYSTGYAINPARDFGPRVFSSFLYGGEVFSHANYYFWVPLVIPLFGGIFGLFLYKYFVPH

`NCC(O)CO` (stereo not shown) [3-aminopropane-1,2-diol]: in [1], the pKa was 9.2. Also, the “permeability of TbAQP2 for the solute” value in [2] is recorded as “did not pass”.

For `COc1ccc(C(=N)N)cc1` [4-methoxy-benzamidine], the “inhibition of TbAQP2 (in words)” value in data set [3] is reported as “incapable of inhibiting TbAQP2”.

As to `CCCCCOc1ccc(C(=N)N)cc1` [4-pentoxy-benzamidine], the IC50 in data set [4] (setting [13]) amounted to 87 µM.

As for `CCCOc1ccc(C(=N)N)cc1` [4-propoxy-benzamidine], the concentration for half-maximal inhibition (IC50) in data set [4] (setting [13]) came to 2800 µM. In addition, in [3], the “maximal inhibition of TbAQP2” value is 60%.

Take `N` [NH4 ^+, ammonium]: the “NH4+ uptake on TbAQP2 expression” value in data set [5] is “neither expression of TbAQP2 nor TbAQP3 enhanced the NH4 ^+ uptake”. For the same molecule, the “NH4+ uptake on TbAQP3 expression” value in data set [6] (pH 5.5, NH4+ as sole nitrogen source, versus cells without ammonium transporter) is listed as “neither expression of TbAQP2 nor TbAQP3 enhanced the NH4 ^+ uptake”.

Consider `[Cl][Au]([Cl])[Cl].c1cnc2c(c1)ccc1cccnc12` [auphen], for which the IC50 in data set [7] is 0.8 µM.

`N=CN` [formamidine]: the pKa in [1] was 13. Also, in [2], the “permeability of TbAQP2 for the solute” value is reported as “did not pass”.

On to `OCC(O)CO` [glycerol], for which the “permeability of TbAQP2 for the solute” value in data set [2] was “showed permeability”.

For the molecule `CN` [methylammonium], the “permeability of TbAQP2 for the positively charged compound form” value in data set [5] (not told) is on record as “impermeable”. Moreover, the “permeability of TbAQP3 for the positively charged compound form” value in [6] (50 mM methylammonium, pH 5.5, yeast survival) is given as “impermeable”.

`N#Cc1ccc(OCCCCCOc2ccc(C(=N)N)cc2)cc1` [nitrile-pentamidine] showed an IC50 in data set [4] (setting [13]) of 0.18 µM.

For the molecule `N=C(N)c1ccc(OCCCCCOc2ccc(C(=N)N)cc2)cc1` [pentamidine], the pKa in [1] is 12.1. The 50% inhibitory concentration (IC50) in data set [4] (setting [13]) is 0.13 µM; in data set [4] (IC50, pentamidine inhibition of TbAQP2, pH 2.5), 1.1 µM; in [4] (IC50, pentamidine inhibition of TbAQP2, pH 3.5) it was 0.45 µM. For the same molecule, in [8], the “effect on glycerol permeability of TbAQP3” value is reported as “unaffected”. In [9], the “pentamidine susceptibility of yeast on expression of TbAQP2” value is given as “did not increase the susceptibility”. Further, the cytotoxicity to yeast result in data set [10] is listed as “cytotoxic”. In [11], the EC50 amounted to 0.103 µM. For the same molecule, the solubility entry in [12] was “low solubility”. Further, in data set [3] (not told), the “block of TbAQP2 glycerol permeability” value was “fully blocked”. The figures for the “reduced affinity versus pH 7.2” value in data set [3] (pH 2.5) and in [3] (pH 3.5) were 8 times and 3 times, respectively.

As for `NC(N)=O` [urea], in data set [2], the “permeability of TbAQP2 for the solute” value is “showed permeability”.
